Experimental data reported in patent publication US8530648B2, “Diaza-spiro[5.5]undecanes” (Novartis AG, priority 2009, dated 2013).

Assays:
hOx1R = hOx1R (Homo sapiens (Human), UniProt O43613); assay: Calcium accumulation in cells (FLIPR), hOx1R; type: cell-based; details: for Ki: inhibition of orexin A induced calcium accumulation, Cheng and Prusoff correction; for inhibition at 10 µM: measured at a concentration of 10 μM of compound
Description: (§1) Calcium Accumulation in Cells (FLIPR):
(§2) Cells expressing human orexin 1 or human orexin 2 receptors, were seeded at 8,000 cells/well in 384 well black-walled clear bottom, poly-D-lysine coated plates. After 24 h, the medium was removed and cells were washed once with phosphate buffered saline and serum-deprived overnight in assay buffer (130 mM NaCl, 5.4 mM KCl, 1.8 mM CaCl2, 0.8 mM MgSO4, 0.9 mM NaH2PO4, 25 mM glucose, 20 mM HEPES, pH 7.4) containing bovine serum albumin (1% w/v).
(§3) On the day of the experiment, the cells seeded in black plates were treated with assay buffer containing the Ca^2+ sensitive fluorescent dye Fluo-4-AM (2 μM), and probenecid (0.1 mM). After 1 h plates were washed twice with, and resuspended in, assay buffer containing probenecid (0.1 mM) using a multi plate washer. […] Fluorescence measurements were then continued every 1 S for 120 S followed by every 4 S for 240 S.
(§4) The measurements were typically made in two sequences:
(§5) Compounds of formula I were tested usually in a concentration range from 10^−9 M to 10^−5 M.
(§6) In the second round, performed one hour later (to allow for equilibration), Orexin A was tested either in the absence (calibration curves, Orexin A agonist controls) or in the presence of compounds of formula I to determine antagonism.

hOx2R = hOx2R (Homo sapiens (Human), UniProt O43614); assay: Calcium accumulation in cells (FLIPR), hOx2R; type: cell-based; details: for Ki: inhibition of orexin A induced calcium accumulation, Cheng and Prusoff correction; for inhibition at 10 µM: measured at a concentration of 10 μM of compound
Description: as §1, §2, §3, §4, §5, §6

Sequence of hOx1R (O43613 whole entry): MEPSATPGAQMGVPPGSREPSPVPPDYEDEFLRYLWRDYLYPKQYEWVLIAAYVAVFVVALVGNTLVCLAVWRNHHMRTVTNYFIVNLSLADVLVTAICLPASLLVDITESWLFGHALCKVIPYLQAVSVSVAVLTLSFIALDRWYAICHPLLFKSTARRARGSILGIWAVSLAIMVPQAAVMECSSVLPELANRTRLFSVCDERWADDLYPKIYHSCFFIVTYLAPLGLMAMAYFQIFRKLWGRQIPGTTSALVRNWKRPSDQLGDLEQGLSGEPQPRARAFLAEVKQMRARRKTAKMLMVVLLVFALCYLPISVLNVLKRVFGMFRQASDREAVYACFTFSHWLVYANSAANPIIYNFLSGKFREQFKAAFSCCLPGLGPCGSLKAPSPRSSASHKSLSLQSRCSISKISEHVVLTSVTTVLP
Sequence of hOx2R (O43614 whole entry): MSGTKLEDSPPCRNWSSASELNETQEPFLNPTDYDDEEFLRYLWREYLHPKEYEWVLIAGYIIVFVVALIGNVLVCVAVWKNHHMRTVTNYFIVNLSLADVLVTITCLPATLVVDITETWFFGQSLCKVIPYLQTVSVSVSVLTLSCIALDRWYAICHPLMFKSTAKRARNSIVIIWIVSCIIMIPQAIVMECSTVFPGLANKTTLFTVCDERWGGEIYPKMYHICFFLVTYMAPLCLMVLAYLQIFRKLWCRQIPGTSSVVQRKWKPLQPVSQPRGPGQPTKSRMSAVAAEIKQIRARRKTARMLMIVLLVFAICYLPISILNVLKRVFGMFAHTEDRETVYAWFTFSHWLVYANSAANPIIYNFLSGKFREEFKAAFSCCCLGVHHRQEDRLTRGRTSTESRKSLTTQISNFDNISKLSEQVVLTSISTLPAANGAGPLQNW

Structure (SMILES)	Ki (hOx1R) [nM]	Ki (hOx2R) [nM]	inhibition at 10 µM (hOx1R) [%]	inhibition at 10 µM (hOx2R) [%]
O=C1N(Cc2cccc(N3CCOCC3)c2)CCCC12CCN(c1cnc3ccccc3n1)CC2 [Example 59, 2-(3-morpholinobenzyl)-9-(quinoxalin-2-yl)-2,9-diazaspiro[5.5]undecan-1-one]			12	31
O=C1N(Cc2cc3ccccc3[nH]2)CCCC12CCN(c1cnc3ccccc3n1)CC2 [Example 121, 2-((1H-indol-2-yl)methyl)-9-(quinoxalin-2-yl)-2,9-diazaspiro[5.5]undecan-1-one]	2530	1660		
Cc1cc(C)n(-c2ccccc2CN2CCCC3(CCN(c4cnc5ccccc5n4)CC3)C2=O)n1 [Example 115, 2-(2-(3,5-dimethyl-1H-pyrazol-1-yl)benzyl)-9-(quinoxalin-2-yl)-2,9-diazaspiro[5.5]undecan-1-one]		1200	57	
Cc1cc(C)nc(CN2CCCC3(CCN(c4cnc5ccccc5n4)CC3)C2=O)c1 [Example 106, 2-((4,6-dimethylpyridin-2-yl)methyl)-9-(quinoxalin-2-yl)-2,9-diazaspiro[5.5]undecan-1-one]		1360	35	
O=C1N(Cc2ccccc2-c2ncccn2)CCCC12CCN(c1cnc3ccccc3n1)CC2 [Example 151, 2-(2-(pyrimidin-2-yl)benzyl)-9-(quinoxalin-2-yl)-2,9-diazaspiro[5.5]undecan-1-one]		675	14	
O=C1N(Cc2cccc(N3CCCC3)n2)CCCC12CCN(c1cnc3ccccc3n1)CC2 [Example 103, 2-((6-(pyrrolidln-1-yl)pyridin-2-yl)methyl)-9-(quinoxalin-2-yl)-2,9-diazaspiro[5.5]undecan-1-one]	2490	1190		
O=C1N(Cc2cccc(Cl)c2)CCCC12CCN(c1nccc(-c3ccccc3)n1)CC2 [Example 29, 2-(3-chlorobenzyl)-9-(4-phenylpyrimidin-2-yl)-2,9-diazaspiro[5.5]undecan-1-one]	1700	614		
Cc1oc(-c2ccoc2)nc1CN1CCCC2(CCN(c3cnc4ccccc4n3)CC2)C1=O [Example 116, 2-((2-(furan-3-yl)-5-methyloxazol-4-yl)methyl)-9-(quinoxalin-2-yl)-2,9-diazaspiro[5.5]undecan-1-one]	3790			53
Cc1oc(-c2cscn2)nc1CN1CCCC2(CCN(c3cnc4ccccc4n3)CC2)C1=O [Example 114, 2-((5-methyl-2-(thiazol-4-yl)oxazol-4-yl)methyl)-9-(quinoxalin-2-yl)-2,9-diazaspiro[5.5]undecan-1-one]	3790	831		
Cc1cc(CN2CCCC3(CCN(c4cnc5ccccc5n4)CC3)C2=O)on1 [Example 105, 2-((3-methylisoxazol-5-yl)methyl)-9-(quinoxalin-2-yl)-2,9-diazaspiro[5.5]undecan-1-one]		1380	47	
O=C1N(Cc2ccccn2)CCCC12CCN(c1cnc3ccccc3n1)CC2 [Example 62, 2-(pyridin-2-ylmethyl)-9-(quinoxalin-2-yl)-2,9-diazaspiro[5.5]undecan-1-one]		833	29	
COc1cccc(CN2CCCC3(CCN(c4cnc5ccccc5n4)CC3)C2=O)c1OC [Example 18, 2-(2,3-dimethoxybenzyl)-9-(quinoxalin-2-yl)-2,9-diazaspiro[5.5]undecan-1-one]		782	3	
Cc1ccc2nc(N3CCC4(CCCN(Cc5c[nH]c6ccccc56)C4=O)CC3)sc2c1 [Example 153, 2-((1H-indol-3-yl)methyl)-9-(6-methylbenzo[d]thiazol-2-yl)-2,9-diazaspiro[5.5]undecan-1-one]			22	35
Cc1ccccc1CN1CCCC2(CCN(c3cnc4ccccc4n3)CC2)C1=O [Example 19, 2-(2-methylbenzyl)-9-(quinoxalin-2-yl)-2,9-diazaspiro[5.5]undecan-1-one]		495	12	
Cn1nc2ccccc2c1CN1CCCC2(CCN(c3cnc4ccccc4n3)CC2)C1=O [Example 76, 2-((2-methyl-2H-indazol-3-yl)methyl)-9-(quinoxalin-2-yl)-2,9-diazaspiro[5.5]undecan-1-one]		559	44	
COc1ccc2[nH]c(N3CCC4(CCCN(Cc5c[nH]c6ccccc56)C4=O)CC3)nc2c1 [Example 159, 2-((1H-indol-3-yl)methyl)-9-(5-methoxy-1H-benzo[d]imidazol-2-yl)-2,9-diazaspiro[5.5]undecan-1-one]		745	24	

Other lines, results leading:

Ki (hOx1R) [nM]	Ki (hOx2R) [nM]	inhibition at 10 µM (hOx1R) [%]	inhibition at 10 µM (hOx2R) [%]	Structure (SMILES)
468	115			O=C1N(Cc2c[nH]c3ccccc23)CCCC12CCN(c1cc(-c3ccccc3)ncn1)CC2 [Example 165, 2-((1H-indol-3-yl)methyl)-9-(6-phenylpyrimidin-4-yl)-2,9-diazaspiro[5.5]undecan-1-one]
1720	247			Cc1cccc(CN2CCCC3(CCN(c4cnc5ccccc5n4)CC3)C2=O)c1C [Example 17, 2-(2,3-dimethylbenzyl)-9-(quinoxalin-2-yl)-2,9-diazaspiro[5.5]undecan-1-one]
1110	163			Cc1cccc(-c2sc(C)nc2CN2CCCC3(CCN(c4cnc5ccccc5n4)CC3)C2=O)c1 [Example 69, 2-((2-methyl-5-m-tolylthiazol-4-yl)methyl)-9-(quinoxalin-2-yl)-2,9-diazaspiro[5.5]undecan-1-one]
	160	33		O=C1N(Cc2cccc(Cl)c2)CCCC12CCN(c1nc3ccccc3[nH]1)CC2 [Example 28, 9-(1H-benzo[d]imidazol-2-yl)-2-(3-chlorobenzyl)-2,9-diazaspiro[5.5]undecan-1-one]
1840	197			O=C1N(Cc2cncn2Cc2ccccc2)CCCC12CCN(c1cnc3ccccc3n1)CC2 [Example 118, 2-((1-benzyl-1H-imidazol-5-yl)methyl)-9-(quinoxalin-2-yl)-2,9-diazaspiro[5.5]undecan-1-one]
1700	320			Cc1nnc(N2CCC3(CCCN(Cc4c[nH]c5ccccc45)C3=O)CC2)c2ccccc12 [Example 157, 2-((1H-indol-3-yl)methyl)-9-(4-methylphthalazin-1-yl)-2,9-diazaspiro[5.5]undecan-1-one]
2040	483			O=C1N(Cc2ccnc(N3CCOCC3)c2)CCCC12CCN(c1cnc3ccccc3n1)CC2 [Example 56, 2-((2-morpholinopyridin-4-yl)methyl)-9-(quinoxalin-2-yl)-2,9-diazaspiro[5.5]undecan-1-one]
2430	225			COc1cccc(CN2CCCC3(CCN(c4cnc5ccccc5n4)CC3)C2=O)c1F [Example 102, 2-(2-fluoro-3-methoxybenzyl)-9-(quinoxalin-2-yl)-2,9-diazaspiro[5.5]undecan-1-one]
1980	404			O=C1CCCC2(CCN(c3cnc4ccccc4n3)CC2)N1Cc1c[nH]c2ncccc12 [Example 141, 1-((1H-pyrrolo[2,3-b]pyridin-3-yl)methyl)-9-(quinoxalin-2-yl)-1,9-diazaspiro[5.5]undecan-2-one]
2160	466			Cc1nc2ccccn2c1CN1CCCC2(CCN(c3cnc4ccccc4n3)CC2)C1=O [Example 71, 2-((2-methylimidazo[1,2-a]pyridin-3-yl)methyl)-9-(quinoxalin-2-yl)-2,9-diazaspiro[5.5]undecan-1-one]
